Measurements published in patent US12453778B2, “Incremental dose finding in controlled-release PTH compounds” (Ascendis Pharma Bone Diseases A/S, priority 2016, dated 2025).
Where two headings read alike, the source gives them in different places.

Tests used:
[1] = pump delivery, over 6-months; cited from earlier work
[2] = cited from earlier work; for osteosarcoma rate: rats, daily injections
[3] = cited from earlier work
[4] = 6-year follow-up; cited from earlier work
[5] = Dose range finding / dose adjustment study with daily subcutaneous injections of TransCon PTH; set-up: time of peak calcium concentration postdose / increases in calcium to pre-study levels / calcium increases: dose or concentration left out as unconfirmed; settings: for sCa compared to pre-study levels: severe hypercalcaemic levels
Description: Dose Range Finding Study—Dose Adjustment Study in Cynomolgus Monkeys with Daily Subcutaneous Injections with TransCon PTH
This study was conducted in order to test the hypothesis of performing dose adjustments with TransCon PTH in 25% increments in response to hypocalcemia or hypercalcemia. The study was performed in male and female Cynomolgus monkeys. Four groups with one male and one female animal in each were dosed for four weeks starting at doses 0.2, 0.5, 1.0 and 2.0 μg/kg/day, respectively. Serum calcium (sCa) levels in the animals were measured pre-dose and post-dose on days -6, 1, 3, 7, 8, 12, 14, 16, 19, 23, 26, 28 and 29.

Question: For `CC[C@H](C)[C@H](NC(=O)[C@H](CCC(=O)O)NC(=O)[C@H](CO)NC(=O)[C@@H](NC(=O)[C@@H](N)CO)C(C)C)C(=O)N[C@@H](CCC(N)=O)C(=O)N[C@@H](CC(C)C)C(=O)N[C@@H](CCSC)C(=O)N[C@@H](Cc1cnc[nH]1)C(=O)N[C@@H](CC(N)=O)C(=O)N[C@@H](CC(C)C)C(=O)NCC(=O)N[C@@H](CCCCN)C(=O)N[C@@H](Cc1cnc[nH]1)C(=O)N[C@@H](CC(C)C)C(=O)N[C@@H](CC(N)=O)C(=O)N[C@@H](CO)C(=O)N[C@@H](CCSC)C(=O)N[C@@H](CCC(=O)O)C(=O)N[C@@H](CCCN=C(N)N)C(=O)N[C@H](C(=O)N[C@@H](CCC(=O)O)C(=O)N[C@@H](Cc1c[nH]c2ccccc12)C(=O)N[C@@H](CC(C)C)C(=O)N[C@@H](CCCN=C(N)N)C(=O)N[C@@H](CCCCN)C(=O)N[C@@H](CCCCN)C(=O)N[C@@H](CC(C)C)C(=O)N[C@@H](CCC(N)=O)C(=O)N[C@@H](CC(=O)O)C(=O)N[C@H](C(=O)N[C@@H](Cc1cnc[nH]1)C(=O)N[C@@H](CC(N)=O)C(=O)N[C@@H](Cc1ccccc1)C(=O)O)C(C)C)C(C)C` [PTH(1-34)], which calcium levels [1] is on record?
Answer: Its calcium levels is “normal, steady state calcium levels with minimal fluctuation”.

Question: And the osteosarcoma rate [2]?
Answer: The osteosarcoma rate was “dose dependent increase”.

Question: Which urinary calcium excretion ([3]; 2-8 hours after injection) does the source give for “PTH(1-84): Natpara, PTH(1-84), approved 2015 for once-daily subcutaneous injection in hypoparathyroidism; SEQ ID NO: 1” here?
Answer: The urinary calcium excretion was “reduced”.

Question: What about the urinary phosphate excretion ([3]; after injection) of the same molecule?
Answer: Its urinary phosphate excretion is “increased only during the first 8 hours”.

Question: And the “patients developing hypercalcemia at one or more measurements” value ([3]; during a 24-hour period after injection)?
Answer: Its value is 71%.

Question: And the “participants achieving normal blood calcium levels on reduced doses of calcium supplements and active forms of vitamin D” value ([3]; once-daily subcutaneous injection, pivotal trial)?
Answer: The value was 42%.

Question: What about the urinary calcium excretion ([3]; over the 24-hour period) of the same molecule?
Answer: Its urinary calcium excretion is “did not change”.

Question: And the “BMD by DXA” value [4]?
Answer: The value was “increases in lumbar spine and declines in distal ⅓ radius”.

Question: And the bone turnover markers [4]?
Answer: Its bone turnover markers is “remained greater than pretreatment values”.

Question: What about the “deaths in high dose group” value ([2]; high dose rats, dosing discontinued, primarily from metastatic osteosarcoma) of the same molecule?
Answer: Its value is “excessive deaths”.

Question: And the osteosarcoma rate [2]?
Answer: The osteosarcoma rate was “dose dependent increase”.

Question: For “TransCon PTH: controlled-release PTH compound administered subcutaneously to cynomolgus monkeys; not tied to a numbered conjugate”, which “sCa compared to pre-study levels” value ([5]; Day 3, female dosed at 2.0 μg/kg/day) is on record?
Answer: Its value is no more than 1.34 ×.

Question: And the “sCa compared to pre-study levels” value ([5]; Day 3, male dosed at 2.0 μg/kg/day)?
Answer: Its value is “up to 1.42 ×”.

Question: And the “time of peak calcium concentration postdose” value ([5]; Day 23, male)?
Answer: The value was 4 h.

Question: What about the “increases in calcium to pre-study levels” value ([5]; Day 26, male and female) of the same molecule?
Answer: Its value is “up to 1.17 ×”.

Question: What about the calcium increases ([5]; Day 29, both sexes) of the same molecule?
Answer: The calcium increases was “still present”.

Question: What about the tolerability ([5]; daily subcutaneous administration at 0.2, 0.5 and 1.0 jag/kg/day for 28 days) of the same molecule?
Answer: Its tolerability is “well tolerated”.
